# Where two headings read alike, the source gives them in different places. Peptide text beside a SMILES is read from it. * marks the point of attachment. Myristoyl = CCCCCCCCCCCCCC(=O)*; Cbz = O=C(OCc1ccccc1)*
# What was measured:
# [1] = tested on: dispersed gastric smooth muscle cells; conditions: for contraction (decrease in cell length), comparator agonists: other contractile agonists, concentration not given; for effect of inhibitor on sustained (10 min) contraction by PAR2-AP: inhibitor 10 min (U73122 10 µM, ML-9 10 µM, bisindolylmaleimide 1 µM, Y27632 1 µM), then PAR2-AP 1 µM 10 min
# [2] = tested on: adenylyl cyclase; assay: Forskolin-stimulated cAMP formation (adenylyl cyclase activity); format: cell-based, rabbit; conditions: forskolin 10 µM, 10 min, 100 µM isobutyl methyl xanthine; basal 2.8±0.5 pmol/mg protein; n = 4
# Protocol: Adenylyl cyclase activity was measured by the formation of cAMP in response to agonists by radioimmunoassay using [^125I]cAMP [18], [21]. One ml (3×10^6 cells/ml) of cell suspension was treated for 60 s with forskolin (10 µM) in the presence of 100 µM isobutylmethyl xanthine, either alone or in combination with PAR2-AP (1 µM). The reaction was terminated with cold 6% trichloroacetic acid (v/v) and vortexed vigorously. After centrifugation, the supernatants were extracted three times with water-saturated diethyl ether to remove the tricholoroacetic acid and the samples were then lyophilized and frozen at –20°C. The samples were reconstituted for radioimmunoassay in 50 µl of 50 mM sodium acetate (pH 6.2) and acetylated with triethylamine/acetic anhydride (2∶1 v/v) for 30 min. […] The results are expressed as pmol of cAMP/mg protein.
# Cyclic AMP formation was measured in freshly dispersed muscle cells in the presence of 100 µM isobutylmethylxanthine. Muscle cells were treated with PAR2-AP (1 µM) alone, forskolin (FSK, 10 µM) alone or forskolin plus PAR2-AP (1 µM) for 60 s and cAMP was measured by radioimmunoassay. In some experiments cells were treated with pertussis toxin (PTx, 200 ng/ml) for 60 min, and then treated with forskolin (10 µM) and PAR2-AP (1 µM) for 60 s. Results are expressed as pmol/mg protein.
# [3] = tested on: Rho kinase; assay: Rho kinase activity (immunokinase assay), PAR2-AP-stimulated or basal; format: cell-based, rabbit; conditions: for basal Rho kinase activity with inhibitor alone / effect of inhibitor on PAR2-AP-induced Rho kinase activity: IKK IV 10 µM; for basal Rho kinase activity with inhibitor alone: MG-132 10 µM or myristoylated PKI 1 µM alone, basal 3125±502 cpm/mg protein, n = four; for effect of inhibitor on PAR2-AP-induced Rho kinase activity: MG-132 10 µM or myristoylated PKI 1 µM, PAR2-AP 1 µM 10 min, freshly dispersed cells, P<0.01
# [4] = molecular target: T1, PAR2 (Oryctolagus cuniculus, UniProt G1SHU9); format: cell-based, rabbit
# T1 construct: Freshly dispersed muscle cells labelled with myo-2-[^3H]inositol were incubated with different concentrations of PAR2-AP for 60 s; endogenous in cells; host or cells: freshly dispersed and primary cultured rabbit gastric smooth muscle cells
# T1 sequence (G1SHU9 25-397): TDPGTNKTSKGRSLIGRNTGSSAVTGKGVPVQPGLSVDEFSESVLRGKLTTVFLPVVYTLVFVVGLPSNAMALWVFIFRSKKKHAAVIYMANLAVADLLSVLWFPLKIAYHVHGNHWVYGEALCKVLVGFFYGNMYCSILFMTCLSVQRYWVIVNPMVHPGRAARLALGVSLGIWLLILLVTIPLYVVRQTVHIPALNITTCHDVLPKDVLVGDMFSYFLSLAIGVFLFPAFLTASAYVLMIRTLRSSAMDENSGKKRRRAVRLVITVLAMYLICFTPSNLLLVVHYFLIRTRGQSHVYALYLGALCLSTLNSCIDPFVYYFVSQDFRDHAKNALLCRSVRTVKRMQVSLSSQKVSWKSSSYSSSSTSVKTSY
# [5] = tested on: NF-kB/PKA catalytic subunit complex; assay: Association of PKA catalytic subunit with NF-kB (co-immunoprecipitation); format: cell-based, rabbit; conditions: cells transfected with PAR2-specific siRNA, PAR2-AP 10 min
# [6] = molecular target: T1, PAR2; assay: PAR2 expression (western blot); format: cell-based, rabbit; conditions: transfection with PAR2-specific siRNA for 48 h, cultured cells
# [7] = molecular target: Protease-activated receptor 2 (PAR2) (rabbit (endogenous in gastric smooth muscle cells))
# [8] = inhibitor 10 min (U73122 10 µM, ML-9 10 µM, bisindolylmaleimide 1 µM, Y27632 1 µM) or PTx 200 ng/ml 60 min, then PAR2-AP 1 µM 30 s
molecule,measurement,setting,value
CC(=O)OCC[N+](C)(C)C [acetylcholine],"contraction (decrease in cell length), comparator agonists",[1],31±3%
C=C[C@@]1(C)CC(=O)[C@]2(O)[C@@]3(C)[C@@H](O)CCC(C)(C)[C@@H]3[C@H](O)[C@H](OC(C)=O)[C@@]2(C)O1 [forskolin],cAMP formation above basal level,[2],22.1±1.86 pmol/mg protein
NC(=O)Nc1sc(-c2ccc(F)cc2)cc1C(N)=O [IKK IV],basal Rho kinase activity with inhibitor alone,[3]; no effect,3021±486 cpm/mg protein
same,effect of inhibitor on PAR2-AP-induced Rho kinase activity,[3],significantly augmented
COc1ccc2c(c1)CC[C@@H]1[C@@H]2CC[C@]2(C)[C@@H](NCCCCCCN3C(=O)C=CC3=O)CC[C@@H]12 [U73122],inhibition of PAR2-AP-stimulated PI hydrolysis by U73122,"[4]; U73122 10 µM 10 min, then PAR2-AP 1 µM 60 s, freshly dispersed cells",abolished
same,PI hydrolysis with inhibitor alone,"[4]; no PAR2-AP, U73122 10 µM 10 min or PTx 200 ng/ml 60 min, basal 520±66 cpm/mg protein, no effect on basal",485±86 cpm/mg protein
same,effect of inhibitor on initial (30 s) contraction by PAR2-AP,[1]; [8],abolished
same,effect of inhibitor on sustained (10 min) contraction by PAR2-AP,[1],not
trypsin,"PI hydrolysis above basal levels, trypsin","[4]; trypsin 1 µM, basal 439±68 cpm/mg protein",2653±302 cpm/mg protein
NCCc1c[nH]c2ccc(O)cc12 [5-hydroxytryptamine],"contraction (decrease in cell length), comparator agonists",[1],30±4%
O=S(=O)(c1cccc2c(Cl)cccc12)N1CCCNCC1 [ML-9],effect of inhibitor on initial (30 s) contraction by PAR2-AP,[1]; [8],abolished
same,effect of inhibitor on sustained (10 min) contraction by PAR2-AP,[1],not
CC(C)C[C@@H](C=O)NC(=O)[C@H](CC(C)C)NC(=O)[C@H](CC(C)C)NC(=O)OCc1ccccc1 [MG-132] (Cbz-Leu-Leu-Leu-aldehyde),basal Rho kinase activity with inhibitor alone,[3]; no effect,2859±602 cpm/mg protein
same,effect of inhibitor on PAR2-AP-induced Rho kinase activity,[3],significantly augmented
cholecystokinin,"contraction (decrease in cell length), comparator agonists",[1],29±2%
C[C@@H](N)[C@H]1CC[C@H](C(=O)Nc2ccncc2)CC1 [Y27632],effect of inhibitor on initial (30 s) contraction by PAR2-AP,[1]; [8],not affected
same,effect of inhibitor on sustained (10 min) contraction by PAR2-AP,[1],preferentially blocked
same,basal Rho kinase activity with Y27632 alone,"[3]; Y27632 1 µM alone, basal 3363±587 cpm/mg protein, no effect",3025±425 cpm/mg protein
"PAR2 siRNA: PAR-2 (ID#s453494): sense: 5′ CCUCCUCUCUGUCAUCUGGTT 3′, antisense: 5′ CCAGAUGACAGAGAGGAGGTC3′ (chemistry not given here)",effect of PAR2 siRNA on PAR2-AP-induced NF-kB and PKA catalytic subunit dissociation,[5],blocked
same,inhibition of PAR2-AP-stimulated PI hydrolysis by PAR2 siRNA,"[4]; cultured cells transfected with PAR2 siRNA, PAR2-AP 1 µM 60 s, p<0.001, n = four",83±6%
same,expression of PAR2,[6],greatly suppressed the expression of PAR2
"myristoylated PKI: membrane-permeable specific PKA inhibitory peptide, myristoylated PKI 14-22 amide (Myristoyl-SGRTGRRNA-NH2; SMILES CCCCCCCCCCCCCC(=O)N[C@@H](CO)C(=O)NCC(=O)N[C@@H](CCCNC(=N)N)C(=O)N[C@H](C(=O)NCC(=O)N[C@@H](CCCNC(=N)N)C(=O)N[C@@H](CCCNC(=N)N)C(=O)N[C@@H](CC(N)=O)C(=O)N[C@@H](C)C(N)=O)[C@@H](C)O; UniProt P61925 14-22, looked up, fragment)",basal Rho kinase activity with inhibitor alone,[3]; no effect,3254±574 cpm/mg protein
same,effect of inhibitor on PAR2-AP-induced Rho kinase activity,[3],significantly augmented
bisindolylmaleimide,effect of inhibitor on initial (30 s) contraction by PAR2-AP,[1],not affected
same,effect of inhibitor on sustained (10 min) contraction by PAR2-AP,[1],not
"SLIGRL [PAR2-activating peptide (PAR2-AP, SLIGRL)]","stimulation of PI hydrolysis in freshly dispersed rabbit gastric smooth muscle cells, concentration-dependent (EC50)",[7],2 nM
